Where two headings read alike, the source gives them in different places.
What was measured:
Format in all cases: cell-based, Staphylococcus aureus
S. aureus ATCC 25923 = assay: Cell morphology by transmission electron microscopy
Description: (§1) Bacterial cells were grown overnight on MHA or MHB containing sub-MICs of penicillin G with or without LF or LFC. Microorganisms were prepared for transmission electron microscopy by fixation with glutaraldehyde followed by ferritin labelling. This method allows good- preservation of capsular material. Briefly, bacterial cells grown in the presence or absence of antibiotics were fixed in cacodylate buffer (0.1 M, pH 7.0) containing 5% (v/v) glutaraldehyde, for 2 h at 20° C. Fixed microorganims were suspended in cacodylate buffer and allowed to react with the polycationic ferritin (Sigma Chemicals, St-Louis, Mo.; final concentration 1.0 mg/ml) for 30 min at 20° C. The reaction was slowed down by 10-fold dilution with buffer, and the microorganisms were centrifuged and washed three times in cacodylate buffer. Bacterial cells were then immobilized in 4% (w/v) agar, washed 5 times in cacodylate buffer and post-fixed with 2% (w/v) osmium tetroxide for 2 h. Washings were repeated as above, and the samples dehydrated in a graded series of acetone washes. Samples were then washed twice in propylene oxide and embedded in Spurr low-viscosity resin. Thin sections were post-stained with uranyl acetate and lead citrate and examined with an electron microscope (Philips 201) at an accelerating voltage of 60 kV.

S. aureus SHY97-4320 = assay: as above
Description: as §1, with “Microorganisms” for “Bacterial cells were grown overnight on MHA or MHB containing sub-MICs of penicillin G with or without LF or LFC. Microorganisms”

S. aureus RN 9 = assay: MIC of penicillin G alone or with bovine LF, macrodilution; conditions: strain β-lactamase +C; for MIC: Staphylococcus aureus
Text: (§2) Staphylococcus aureus strains ATCC 25923 and 6538 and Escherichia coli ATCC 25922 were obtained from the American Type Culture Collection. Eight bovine mastitis clinical isolates of S. aureus (SHY97-3906, -3923, -4085 -4242, -4320 and -4343, RFT-1 and RFT-5) and one isolate of E. coli SHY97-3923-2 and one isolate of Kiebsiella pneumoniae SHY99-723-1 were kindly provided by the Laboratoire Provincial de Pathologie Animale of St-Hyacinthe and of Rock-Forest (Quebec, Canada), respectively. Nine β-lactam antibiotics resistant S. aureus strains (PC-1, NCTC 9789, 2076, 22260, ST79/741, 3804, RN9, FAR8, and FAR10) were obtained from Vanderbilt University School of Medicine (Nashville, Tenn., USA). All the culture media were from Difco Laboratories (Detroit, Mich.). Bacteria from frozen stock at −80° C. were streaked onto tryptic soy agar plates suplemented with 5% of defibrinated sheep blood (Quelab, Montreal, QC, Canada) or Brain Heart infusion agar plates. Plates were then incubated for 16 to 24 h at 37° C. For most experiments, the strains were subcultured onto Mueller Hinton agar plates (MHA) or broth (MHB) for an additional 16-20 h. Aqueous solutions of the tested products were added by filtration through a sterile filter assembly (pore size 0.2 μm, Fisher, Ottawa, Ontario).
(§3) The MICs were determined by both macrodilution (1 ml/tube) and microdilution (100 μl/well) in sterile 96 well microtiter plates (International Nunc, Napierville, Ill.) techniques in three separate experiments according to the National Committee for Clinical Laboratory Standards (1992 and 1999) in three separate experiments. Serial 2-fold dilutions in MHB of LF, LFC, antibiotic or combination of LF or LFC with antibiotic were inoculated with an overnight culture at a final inoculum of 10^6 cfu/ml in MHB. Effect of LF combination with antibiotic on MICs were determined by adding 0.5 mg or 1 mg/ml of LF to each antibiotic dilution. The MIC was defined as the lowest concentration of drug (highest dilution) that caused a complete inhibition of bacterial growth after an incubation of 18 h. Effect of LF or LFC combination with antibiotic on MIC was also determined by checkerboard method using 96 well microtiter plates. Each antibiotic dilution (50 μl) was serially added to the wells in vertical rows starting from the top (lower dilution) to the bottom. Lactoferrin or LFC (50 μl) were added to 50 μl of each antibiotic dilution and serially diluted starting at the left (lower dilution) to the right. After inoculation, the final concentration of antibiotic from top to bottom were 32 to 8, 2 to 0.5, 0.5 to 0.125 μg/ml for penicillin, cefazolin and neomycin, respectively. From left to right, the concentration of LF or LFC were 25 to 0.0244 mg/ml or 256 to 0.5 μg/ml respectively in a final volume of 100 μl/well. The microplate's were incubated at 37° C. for 24 h. Bacterial growth was measured optically at 540 nm using Spectra Max 250 Microplate Spectrophotometer System of Molecular Device (Fisher Scientific, Ottawa, Canada). Tubes were incubated at 37° C. for 18 h and bacterial growth was measured by visual examination and optically at 540 nm using a spectrophotometer (Philips PU 8800; Pye Unican Ltd, Cambridge, UK). The fractional inhibitory concentration (FIC) was calculated as described by Eliopoulos and Moellering (1991).

S. aureus 22260 = assay: as above; conditions: strain β-lactamase +B, read-out: MICs of penicillin G
Text: as §2, §3

S. aureus 3804^f = assay: as above; conditions: strain β-lactamase +C; for MIC: Staphylococcus aureus
Text: as §2, §3

S. aureus 2076 = assay: as above; conditions: strain β-lactamase +A, read-out: MICs of penicillin G
Text: as §2, §3

CC1(C)S[C@@H]2[C@H](NC(=O)Cc3ccccc3)C(=O)N2[C@H]1C(=O)O [penicillin G, Penicillin G]
cell morphology (S. aureus ATCC 25923; penicillin G 0.0078 μg/ml alone, 18-h): induced formation of large symmetrically arranged pseudomulticellular staphylococci | cell morphology (S. aureus ATCC 25923; penicillin G 0.0078 μg/ml with LF 9.1 μg/ml): asymmetrically arranged pseudomulticellular staphylococci were formed | cell morphology (S. aureus SHY97-4320; penicillin G 8 μg/ml alone, 4-h): no visible effect | cell morphology (S. aureus SHY97-4320; penicillin G 8 μg/ml combined with LF 1 mg/ml): morphology changes were similar to that observed in the susceptible strain | MICs of penicillin G (S. aureus RN 9; +1 mg/ml LF): 64 µg/mL | MIC (S. aureus RN 9; RN9, read-out: MICs of penicillin G, Alone): 128 µg/mL | MIC (S. aureus RN 9; RN9, +0.5 mg/ml LF, read-out: MICs of penicillin G): 64 µg/mL | MIC (S. aureus 22260; Staphylococcus aureus, 22260, +0.5 mg/ml LF): 16 µg/mL | MIC (S. aureus 22260; Staphylococcus aureus, 22260, +1 mg/ml LF): 16 µg/mL | MIC (S. aureus 22260; Staphylococcus aureus, 22260, Alone): 32 µg/mL | MICs of penicillin G (S. aureus 3804^f; +1 mg/ml LF): 64 µg/mL | MIC (S. aureus 3804^f; read-out: MICs of penicillin G, Alone): 128 µg/mL | MIC (S. aureus 3804^f; +0.5 mg/ml LF, read-out: MICs of penicillin G): 64 µg/mL | MIC (S. aureus 2076; Staphylococcus aureus, 2076, +0.5 mg/ml LF): 0.25 µg/mL | MIC (S. aureus 2076; Staphylococcus aureus, 2076, +1 mg/ml LF): 0.25 µg/mL | MIC (S. aureus 2076; Staphylococcus aureus, 2076, Alone): 0.5 µg/mL

Source: patent US20030134779A1, “Method and composition for treatment and/or prevention of antibiotic-resistant microorganism infections” (priority 2002, published 2003)
